Experimental data taken from ChEMBL document CHEMBL5042487, “Design, synthesis, and biological activity evaluation of 2-(benzo[b]thiophen-2-yl)-4-phenyl-4,5-dihydrooxazole derivatives as broad-spectrum antifungal agents” (Eur J Med Chem, 2022).
Converted amounts (≈) assume the structure as drawn.

Legend:
Candida albicans [1] = experiment: Antifungal activity against Candida albicans SC5314 assessed as inhibition of fungal growth by NCCLS protocol based method; type: functional
Candida albicans [2] = experiment: Antifungal activity against Candida albicans GIM 2.194 assessed as inhibition of fungal growth by NCCLS protocol based method; type: functional
Candida tropicalis = experiment: Antifungal activity against Candida tropicalis GIM 2.183 assessed as inhibition of fungal growth by NCCLS protocol based method; type: functional
Cryptococcus neoformans = experiment: Antifungal activity against Cryptococcus neoformans GIM 2.209 assessed as inhibition of fungal growth by NCCLS protocol based method; type: functional
Aspergillus fumigatus = experiment: Antifungal activity against Aspergillus fumigatus CGMCC 3.7795 assessed as inhibition of fungal growth by NCCLS protocol based method; type: functional
Candida albicans [3] = experiment: Antifungal activity against fluconazole resistant Candida albicans CaR assessed as inhibition of fungal growth by NCCLS protocol based method; type: functional
Candida albicans [4] = experiment: Antifungal activity against fluconazole and itraconazole resistant Candida albicans 17# assessed as inhibition of fungal growth by NCCLS protocol based method; type: functional
[5] = Metabolic stability in human liver microsomes assessed as half life at 100 uM pre-incubated for 10 mins followed by NADPH-regenerating system and measured upto 60 mins by LC-MS/MS analysis; type: ADME, Microsome; details: time <=70 min
[6] = Metabolic stability in human liver microsomes assessed as microsomal intrinsic clearance at 100 uM pre-incubated for 10 mins followed by NADPH-regenerating system and measured upto 60 mins by LC-MS/MS analysis; type: ADME, Microsome; details: time <=70 min, read-out: CLH
[7] = Metabolic stability in human liver microsomes assessed as liver intrinsic clearance at 100 uM pre-incubated for 10 mins followed by NADPH-regenerating system and measured upto 60 mins by LC-MS/MS analysis; type: ADME, Microsome; details: time <=70 min, read-out: CLH
[8] = Metabolic stability in human liver microsomes assessed as parent compound remaining at 100 uM pre-incubated for 10 mins followed by NADPH-regenerating system and measured upto 60 mins by LC-MS/MS analysis; type: ADME, Microsome; details: time <=70 min, read-out: Stability
[9] = Metabolic stability in human liver microsomes assessed as parent compound remaining incubated upto 60 mins by LC-MS/MS analysis; type: ADME, Microsome; details: read-out: Stability
[10] = Stability in human plasma assessed as compound remaining incubated for 60 mins by LC-MS/MS analysis; type: ADME, cell-free; details: read-out: Stability
[11] = Stability in human plasma assessed as compound remaining incubated for 120 mins by LC-MS/MS analysis; type: ADME, cell-free; details: 2 h
[12] = Stability in human plasma assessed as half life incubated for 60 mins by LC-MS/MS analysis; type: ADME, cell-free
Cytochrome P450 1A2 = molecular target: T1, Cytochrome P450 1A2 (Homo sapiens, UniProt P05177); experiment: Inhibition of CYP1A2 in human liver microsomes incubated for 10 mins in presence of NADPH by LC/MS/MS analysis; type: ADME
T1 sequence (P05177 whole entry): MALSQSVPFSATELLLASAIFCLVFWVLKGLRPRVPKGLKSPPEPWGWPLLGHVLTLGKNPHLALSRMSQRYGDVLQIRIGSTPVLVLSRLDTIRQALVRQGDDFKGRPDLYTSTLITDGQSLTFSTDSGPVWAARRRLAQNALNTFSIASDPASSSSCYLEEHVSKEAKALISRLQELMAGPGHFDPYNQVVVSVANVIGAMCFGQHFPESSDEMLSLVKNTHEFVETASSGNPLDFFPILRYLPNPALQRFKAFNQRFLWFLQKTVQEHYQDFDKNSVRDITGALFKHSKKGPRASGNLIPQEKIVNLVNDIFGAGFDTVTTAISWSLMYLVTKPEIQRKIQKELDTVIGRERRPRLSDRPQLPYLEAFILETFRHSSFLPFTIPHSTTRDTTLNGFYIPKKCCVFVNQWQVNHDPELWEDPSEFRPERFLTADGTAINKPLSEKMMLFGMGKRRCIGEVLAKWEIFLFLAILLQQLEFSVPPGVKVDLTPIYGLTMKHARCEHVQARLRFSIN

Cytochrome P450 2C9 = Cytochrome P450 2C9 (Homo sapiens, UniProt P11712); experiment: Inhibition of CYP2C9 in human liver microsomes incubated for 10 mins in presence of NADPH by LC/MS/MS analysis; type: ADME
Sequence of Cytochrome P450 2C9 (P11712 whole entry): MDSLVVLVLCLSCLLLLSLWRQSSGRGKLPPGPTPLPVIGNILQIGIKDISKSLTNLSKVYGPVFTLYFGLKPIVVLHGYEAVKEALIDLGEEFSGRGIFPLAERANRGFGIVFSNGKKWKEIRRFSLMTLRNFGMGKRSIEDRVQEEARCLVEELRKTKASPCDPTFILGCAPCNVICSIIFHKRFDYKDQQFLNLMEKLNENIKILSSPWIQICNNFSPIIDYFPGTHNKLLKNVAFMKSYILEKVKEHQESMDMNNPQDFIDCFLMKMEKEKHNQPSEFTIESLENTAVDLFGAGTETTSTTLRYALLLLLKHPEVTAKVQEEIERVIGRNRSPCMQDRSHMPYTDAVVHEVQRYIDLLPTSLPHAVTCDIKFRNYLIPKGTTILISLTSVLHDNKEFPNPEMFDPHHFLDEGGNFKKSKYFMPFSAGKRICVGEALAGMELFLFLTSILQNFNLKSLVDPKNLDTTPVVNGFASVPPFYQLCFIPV

Cytochrome P450 2C19 = Cytochrome P450 2C19 (Homo sapiens, UniProt P33261); experiment: Inhibition of CYP2C19 in human liver microsomes incubated for 10 mins in presence of NADPH by LC/MS/MS analysis; type: ADME
Sequence of Cytochrome P450 2C19 (P33261 whole entry): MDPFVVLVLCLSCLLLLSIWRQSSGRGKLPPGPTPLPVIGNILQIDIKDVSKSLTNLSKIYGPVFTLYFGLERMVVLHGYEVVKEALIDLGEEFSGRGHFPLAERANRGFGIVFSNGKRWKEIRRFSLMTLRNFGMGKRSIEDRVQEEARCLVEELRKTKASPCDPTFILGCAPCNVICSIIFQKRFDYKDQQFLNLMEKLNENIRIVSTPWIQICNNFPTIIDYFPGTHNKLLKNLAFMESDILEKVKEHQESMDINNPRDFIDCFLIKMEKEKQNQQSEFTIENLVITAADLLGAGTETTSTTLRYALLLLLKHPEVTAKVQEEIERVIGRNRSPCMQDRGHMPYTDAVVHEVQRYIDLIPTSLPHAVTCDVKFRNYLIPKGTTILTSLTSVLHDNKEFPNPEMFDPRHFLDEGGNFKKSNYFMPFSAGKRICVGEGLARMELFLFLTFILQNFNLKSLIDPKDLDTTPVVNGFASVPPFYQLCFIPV

Cytochrome P450 2D6 = Cytochrome P450 2D6 (Homo sapiens, UniProt P10635); experiment: Inhibition of CYP2D6 in human liver microsomes incubated for 10 mins in presence of NADPH by LC/MS/MS analysis; type: ADME
Sequence of Cytochrome P450 2D6 (P10635 whole entry): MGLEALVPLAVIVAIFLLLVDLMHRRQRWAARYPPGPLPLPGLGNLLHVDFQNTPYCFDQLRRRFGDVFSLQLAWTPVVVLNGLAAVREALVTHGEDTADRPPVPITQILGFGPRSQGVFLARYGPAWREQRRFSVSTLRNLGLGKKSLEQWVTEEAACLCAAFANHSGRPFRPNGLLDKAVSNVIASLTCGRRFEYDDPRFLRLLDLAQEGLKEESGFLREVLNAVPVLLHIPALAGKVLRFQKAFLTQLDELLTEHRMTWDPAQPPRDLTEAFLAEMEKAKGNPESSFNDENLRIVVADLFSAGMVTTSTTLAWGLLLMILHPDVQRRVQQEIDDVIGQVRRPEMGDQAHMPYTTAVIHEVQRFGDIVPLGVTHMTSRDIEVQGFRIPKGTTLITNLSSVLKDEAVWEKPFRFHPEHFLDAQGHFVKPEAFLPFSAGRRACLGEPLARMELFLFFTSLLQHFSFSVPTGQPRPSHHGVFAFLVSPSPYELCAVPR

Cytochrome P450 3A4 = Cytochrome P450 3A4 (Homo sapiens, UniProt P08684); experiment: Inhibition of CYP3A4 in human liver microsomes incubated for 10 mins in presence of NADPH by LC/MS/MS analysis; type: ADME
Sequence of Cytochrome P450 3A4 (P08684 whole entry): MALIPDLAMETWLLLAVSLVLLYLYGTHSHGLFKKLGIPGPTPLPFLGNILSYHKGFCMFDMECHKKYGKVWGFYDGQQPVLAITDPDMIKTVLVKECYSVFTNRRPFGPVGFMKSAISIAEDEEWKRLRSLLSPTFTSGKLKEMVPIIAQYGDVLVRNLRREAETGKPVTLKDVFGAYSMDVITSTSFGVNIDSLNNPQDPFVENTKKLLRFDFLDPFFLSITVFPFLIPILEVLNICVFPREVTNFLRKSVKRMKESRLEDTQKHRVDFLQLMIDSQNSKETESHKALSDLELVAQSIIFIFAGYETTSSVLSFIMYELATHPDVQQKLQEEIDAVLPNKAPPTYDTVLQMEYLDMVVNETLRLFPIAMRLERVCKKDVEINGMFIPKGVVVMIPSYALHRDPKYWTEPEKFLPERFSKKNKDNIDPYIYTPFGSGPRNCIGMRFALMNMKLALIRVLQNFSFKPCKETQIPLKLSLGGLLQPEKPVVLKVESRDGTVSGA

[13] = Initial plasma concentration in Sprague-Dawley rat at 2 mg/kg, iv measured upto 24 hrs by LC/MS/MS analysis; type: ADME, organism-based
[14] = Half life in Sprague-Dawley rat at 2 mg/kg, iv measured upto 24 hrs by LC/MS/MS analysis; type: ADME, organism-based; details: in vivo
[15] = Volume of distribution at steady state in Sprague-Dawley rat at 2 mg/kg, iv measured upto 24 hrs by LC/MS/MS analysis; type: ADME, organism-based; details: in vivo, read-out: Vdss
[16] = Clearance in Sprague-Dawley rat at 2 mg/kg, iv measured upto 24 hrs by LC/MS/MS analysis; type: ADME, organism-based; details: in vivo
[17] = AUC(0 to last) in Sprague-Dawley rat at 2 mg/kg, iv measured upto 24 hrs by LC/MS/MS analysis; type: ADME, organism-based; design: route intravenous, dose 2 mg/kg, time <=24; details: in vivo
[18] = AUC (0 to infinity) in Sprague-Dawley rat at 2 mg/kg, iv measured upto 24 hrs by LC/MS/MS analysis; type: ADME, organism-based; design: route intravenous, dose 2 mg/kg, time <=24; details: in vivo

SMILES	MIC (Candida albicans [1]) [µg/mL]	MIC (Candida albicans [2]) [µg/mL]	MIC (Candida tropicalis) [µg/mL]	MIC (Cryptococcus neoformans) [µg/mL]	MIC (Aspergillus fumigatus) [µg/mL]	MIC (Candida albicans [3]) [µg/mL]	MIC (Candida albicans [4]) [µg/mL]	half-life at 100 µM [5] [h]	microsomal CLint at 100 µM [6] [µL/min/mg]	CLint scaled at 100 µM [7] [mL/min/kg]	remaining at 1 h, 100 µM [8] [%]	remaining at 1 h [9] [%]	remaining at 1 h [10] [%]	Stability [11] [%]	half-life [12] [h]	IC50 (Cytochrome P450 1A2) [µM]	IC50 (Cytochrome P450 2C9) [µM]	IC50 (Cytochrome P450 2C19) [µM]	IC50 (Cytochrome P450 2D6) [µM]	IC50 (Cytochrome P450 3A4) [µM]	other results
Clc1ccc(C2(Cn3cncn3)COC(c3cc4ccc(Cl)cc4s3)=N2)cc1 (stereo unspecified)	< 0.03	< 0.03	0.06 (≈ 0.14 µM)	0.5 (≈ 1.16 µM)	2 (≈ 4.66 µM)	0.5 (≈ 1.16 µM)	> 64	1.16	20	18	49.9	77.3	92.7	116.1	> 4.82	5.67	1.5	0.168	47.6	29.1	
Fc1ccc(C2(Cn3cncn3)COC(c3cc4ccc(Cl)cc4s3)=N2)cc1 (stereo unspecified)	< 0.03	< 0.03	< 0.03	0.25 (≈ 0.606 µM)	0.5 (≈ 1.21 µM)	0.5 (≈ 1.21 µM)	> 64	1.34	17.2	15.5	54.6	82.6	92.6	108.2	> 4.82	4.47	2.87	1.04	31.3	10.1	C0 at 24 h [13]: 482 ng/mL; half-life [14]: 3.34 h; Vd [15]: 10.3 L/kg; clearance [16]: 69.4 mL/min/kg; AUC(0-t) at 24 h [17]: 483 ng·h/mL; AUC(0-inf) [18]: 505 ng·h/mL
